{"source": "patent US10781224B2", "about": "“Bis(oxymethyl)phosphinic acid and biogenic metal salts thereof as regulators of plant growth and development” (priority 2016, dated 2020)", "test_system": "winter wheat (Vershin variety)", "assay": "Winter wheat seed treatment with BHMPA salts: germinating power (length and mass of roots and sprouts)", "format": "in vivo", "procedure,_shortened": "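Seeds (50 per Petri dish on two layers of filter paper) soaked 1 h in BHMPA or its Ca, Mg, Na, Co, Mn, Cu or Zn salts at 1·10^−6-1·10^−12%, with water controls. Germination energy read on day 4, germination on day 8 (wheat) or day 7 (rice, corn), as % means of four replicates. Germinating power taken as root and sprout length plus wet and dry mass per 100 seedlings.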", "key": {"[1]": {"conditions": "comparative study, 1·10^−9% solution"}}}
{"smiles": "O.O.O=P([O-])(CO)CO.O=P([O-])(CO)CO.[Mn+2]", "note": "[Mn-salt, Manganese BHMPA Salt]", "values": [{"measurement": "Length, root", "setting": "1·10^−6% solution", "result": 2.8, "unit": "cm"}, {"measurement": "Length, root, + % to control", "setting": "1·10^−6% solution", "result": "−7", "unit": "%"}, {"measurement": "Length, sprout", "setting": "1·10^−6% solution", "result": 3.4, "unit": "cm"}, {"measurement": "Length, sprout, + % to control", "setting": "1·10^−6% solution", "result": "−5.5", "unit": "%"}, {"measurement": "Mass, dry, root", "setting": "1·10^−6% solution", "result": 0.32, "unit": "g/100 plantlings"}, {"measurement": "Mass, dry, root, + % to control", "setting": "1·10^−6% solution", "result": "−2", "unit": "%"}, {"measurement": "Mass, dry, sprout", "setting": "1·10^−6% solution", "result": 0.44, "unit": "g/100 plantlings"}, {"measurement": "Mass, dry, sprout, + % to control", "setting": "1·10^−6% solution", "result": "−10", "unit": "%"}, {"measurement": "Mass, wet, root", "setting": "1·10^−6% solution", "result": 1.38, "unit": "g/100 plantlings"}, {"measurement": "Mass, wet, root, + % to control", "setting": "1·10^−6% solution", "result": "−9", "unit": "%"}, {"measurement": "Mass, wet, sprout", "setting": "1·10^−6% solution", "result": 3.37, "unit": "g/100 plantlings"}, {"measurement": "Mass, wet, sprout, + % to control", "setting": "1·10^−6% solution", "result": "−6", "unit": "%"}, {"measurement": "germinating power results vs control", "setting": "1·10^−6% solution", "result": "lower than those of the control"}, {"measurement": "Length, root", "setting": "1·10^−7% solution", "result": 3.8, "unit": "cm"}, {"measurement": "Length, root, + % to control", "setting": "1·10^−7% solution", "result": 27, "unit": "%"}, {"measurement": "Length, sprout", "setting": "1·10^−7% solution", "result": 4.8, "unit": "cm"}, {"measurement": "Length, sprout, + % to control", "setting": "1·10^−7% solution", "result": 33, "unit": "%"}, {"measurement": "Mass, dry, root", "setting": "1·10^−7% solution", "result": 0.50, "unit": "g/100 plantlings"}, {"measurement": "Mass, dry, root, + % to control", "setting": "1·10^−7% solution", "result": 35, "unit": "%"}, {"measurement": "Mass, dry, sprout", "setting": "1·10^−7% solution", "result": 0.58, "unit": "g/100 plantlings"}, {"measurement": "Mass, dry, sprout, + % to control", "setting": "1·10^−7% solution", "result": 18, "unit": "%"}, {"measurement": "Mass, wet, root", "setting": "1·10^−7% solution", "result": 1.74, "unit": "g/100 plantlings"}, {"measurement": "Mass, wet, root, + % to control", "setting": "1·10^−7% solution", "result": 14.5, "unit": "%"}, {"measurement": "Mass, wet, sprout", "setting": "1·10^−7% solution", "result": 3.84, "unit": "g/100 plantlings"}, {"measurement": "Mass, wet, sprout, + % to control", "setting": "1·10^−7% solution", "result": 7, "unit": "%"}, {"measurement": "Length, root", "setting": "1·10^−8% solution", "result": 4.4, "unit": "cm"}, {"measurement": "Length, root, + % to control", "setting": "1·10^−8% solution", "result": 47, "unit": "%"}, {"measurement": "Length, sprout", "setting": "1·10^−8% solution", "result": 6.0, "unit": "cm"}, {"measurement": "Length, sprout, + % to control", "setting": "1·10^−8% solution", "result": 67, "unit": "%"}, {"measurement": "Mass, dry, root", "setting": "1·10^−8% solution", "result": 0.53, "unit": "g/100 plantlings"}, {"measurement": "Mass, dry, root, + % to control", "setting": "1·10^−8% solution", "result": 43, "unit": "%"}, {"measurement": "Mass, dry, sprout", "setting": "1·10^−8% solution", "result": 0.67, "unit": "g/100 plantlings"}, {"measurement": "Mass, dry, sprout, + % to control", "setting": "1·10^−8% solution", "result": 37, "unit": "%"}, {"measurement": "Mass, wet, root", "setting": "1·10^−8% solution", "result": 2.09, "unit": "g/100 plantlings"}, {"measurement": "Mass, wet, root, + % to control", "setting": "1·10^−8% solution", "result": 37.5, "unit": "%"}, {"measurement": "Mass, wet, sprout", "setting": "1·10^−8% solution", "result": 4.52, "unit": "g/100 plantlings"}, {"measurement": "Mass, wet, sprout, + % to control", "setting": "1·10^−8% solution", "result": 25.5, "unit": "%"}, {"measurement": "Length, root", "setting": "1·10^−9% solution", "result": 4.6, "unit": "cm"}, {"measurement": "Length, root, + % to control", "setting": "1·10^−9% solution", "result": 53, "unit": "%"}, {"measurement": "Length, sprout", "setting": "1·10^−9% solution", "result": 7.9, "unit": "cm"}, {"measurement": "Length, sprout, + % to control", "setting": "1·10^−9% solution", "result": 119, "unit": "%"}, {"measurement": "Mass, dry, root", "setting": "1·10^−9% solution", "result": 0.62, "unit": "g/100 plantlings"}, {"measurement": "Mass, dry, root, + % to control", "setting": "1·10^−9% solution", "result": 67.5, "unit": "%"}, {"measurement": "Mass, dry, sprout", "setting": "1·10^−9% solution", "result": 0.84, "unit": "g/100 plantlings"}, {"measurement": "Mass, dry, sprout, + % to control", "setting": "1·10^−9% solution", "result": 71, "unit": "%"}, {"measurement": "Mass, wet, root", "setting": "1·10^−9% solution", "result": 3.00, "unit": "g/100 plantlings"}, {"measurement": "Mass, wet, root, + % to control", "setting": "1·10^−9% solution", "result": 97, "unit": "%"}, {"measurement": "Mass, wet, sprout", "setting": "1·10^−9% solution", "result": 5.09, "unit": "g/100 plantlings"}, {"measurement": "Mass, wet, sprout, + % to control", "setting": "1·10^−9% solution", "result": 41, "unit": "%"}, {"measurement": "Length, root", "setting": "1·10^−10% solution", "result": 4.5, "unit": "cm"}, {"measurement": "Length, root, + % to control", "setting": "1·10^−10% solution", "result": 50, "unit": "%"}, {"measurement": "Length, sprout", "setting": "1·10^−10% solution", "result": 7.1, "unit": "cm"}, {"measurement": "Length, sprout, + % to control", "setting": "1·10^−10% solution", "result": 97, "unit": "%"}, {"measurement": "Mass, dry, root", "setting": "1·10^−10% solution", "result": 0.57, "unit": "g/100 plantlings"}, {"measurement": "Mass, dry, root, + % to control", "setting": "1·10^−10% solution", "result": 54, "unit": "%"}, {"measurement": "Mass, dry, sprout", "setting": "1·10^−10% solution", "result": 0.80, "unit": "g/100 plantlings"}, {"measurement": "Mass, dry, sprout, + % to control", "setting": "1·10^−10% solution", "result": 63, "unit": "%"}, {"measurement": "Mass, wet, root", "setting": "1·10^−10% solution", "result": 2.16, "unit": "g/100 plantlings"}, {"measurement": "Mass, wet, root, + % to control", "setting": "1·10^−10% solution", "result": 142, "unit": "%"}, {"measurement": "Mass, wet, sprout", "setting": "1·10^−10% solution", "result": 4.60, "unit": "g/100 plantlings"}, {"measurement": "Mass, wet, sprout, + % to control", "setting": "1·10^−10% solution", "result": 28, "unit": "%"}, {"measurement": "Length, root", "setting": "1·10^−11% solution", "result": 4.4, "unit": "cm"}, {"measurement": "Length, root, + % to control", "setting": "1·10^−11% solution", "result": 47, "unit": "%"}, {"measurement": "Length, sprout", "setting": "1·10^−11% solution", "result": 6.1, "unit": "cm"}, {"measurement": "Length, sprout, + % to control", "setting": "1·10^−11% solution", "result": 69, "unit": "%"}, {"measurement": "Mass, dry, root", "setting": "1·10^−11% solution", "result": 0.52, "unit": "g/100 plantlings"}, {"measurement": "Mass, dry, root, + % to control", "setting": "1·10^−11% solution", "result": 40.5, "unit": "%"}, {"measurement": "Mass, dry, sprout", "setting": "1·10^−11% solution", "result": 0.75, "unit": "g/100 plantlings"}, {"measurement": "Mass, dry, sprout, + % to control", "setting": "1·10^−11% solution", "result": 53, "unit": "%"}, {"measurement": "Mass, wet, root", "setting": "1·10^−11% solution", "result": 1.90, "unit": "g/100 plantlings"}, {"measurement": "Mass, wet, root, + % to control", "setting": "1·10^−11% solution", "result": 34, "unit": "%"}, {"measurement": "Mass, wet, sprout", "setting": "1·10^−11% solution", "result": 4.00, "unit": "g/100 plantlings"}, {"measurement": "Mass, wet, sprout, + % to control", "setting": "1·10^−11% solution", "result": 11, "unit": "%"}, {"measurement": "Length, root", "setting": "1·10^−12% solution", "result": 3.6, "unit": "cm"}, {"measurement": "Length, root, + % to control", "setting": "1·10^−12% solution", "result": 20, "unit": "%"}, {"measurement": "Length, sprout", "setting": "1·10^−12% solution", "result": 5.2, "unit": "cm"}, {"measurement": "Length, sprout, + % to control", "setting": "1·10^−12% solution", "result": 44, "unit": "%"}, {"measurement": "Mass, dry, root", "setting": "1·10^−12% solution", "result": 0.40, "unit": "g/100 plantlings"}, {"measurement": "Mass, dry, root, + % to control", "setting": "1·10^−12% solution", "result": 8, "unit": "%"}, {"measurement": "Mass, dry, sprout", "setting": "1·10^−12% solution", "result": 0.69, "unit": "g/100 plantlings"}, {"measurement": "Mass, dry, sprout, + % to control", "setting": "1·10^−12% solution", "result": 31, "unit": "%"}, {"measurement": "Mass, wet, root", "setting": "1·10^−12% solution", "result": 1.52, "unit": "g/100 plantlings"}, {"measurement": "Mass, wet, root, + % to control", "setting": "1·10^−12% solution", "result": 0, "unit": "%"}, {"measurement": "Mass, wet, sprout", "setting": "1·10^−12% solution", "result": 3.48, "unit": "g/100 plantlings"}, {"measurement": "Mass, wet, sprout, + % to control", "setting": "1·10^−12% solution", "result": "−3", "unit": "%"}, {"measurement": "Length, root", "setting": "[1]", "result": 9.8, "unit": "cm"}, {"measurement": "Length, root, + % to control", "setting": "[1]", "result": 13, "unit": "%"}, {"measurement": "Length, sprout", "setting": "[1]", "result": 6.7, "unit": "cm"}, {"measurement": "Length, sprout, + % to control", "setting": "[1]", "result": 8, "unit": "%"}, {"measurement": "Mass, dry, root", "setting": "[1]", "result": 0.66, "unit": "g/100 plantlings"}, {"measurement": "Mass, dry, root, + % to control", "setting": "[1]", "result": 6, "unit": "%"}, {"measurement": "Mass, dry, sprout", "setting": "[1]", "result": 0.55, "unit": "g/100 plantlings"}, {"measurement": "Mass, dry, sprout, + % to control", "setting": "[1]", "result": 8, "unit": "%"}, {"measurement": "Mass, wet, root", "setting": "[1]", "result": 5.69, "unit": "g/100 plantlings"}, {"measurement": "Mass, wet, root, + % to control", "setting": "[1]", "result": 57, "unit": "%"}, {"measurement": "Mass, wet, sprout", "setting": "[1]", "result": 4.97, "unit": "g/100 plantlings"}, {"measurement": "Mass, wet, sprout, + % to control", "setting": "[1]", "result": 25, "unit": "%"}]}
